Reference: patent US4021574A, “Antidandruff compositions containing 9-(4-lower alkoxy-2,3,6-trilower-alkylphenyl)-3,7-dimethyl-nona-2,4,6,8-tetraen-1-o ic acid lower alkyl amides” (Hoffmann-La Roche Inc., priority 1974, dated 1977)

Tests used:
corneocytes on the scalp = test: Antidandruff activity: number of corneocytes on the scalp of male volunteers; type: in vivo, human (male volunteers)
Experimental: Dermatology, Vol. 53, p. 107 (1969). Each volunteer was treated by applying to the scalp 15 ml. of 0.1% by weight solution thereof daily for seven days. The number of corneocytes on the scalp of each subject was determined one day before treatment began and 1 day after termination of treatment.

LD50 s.c. in the mouse = details: in vivo, sc

CCNC(=O)/C=C(C)/C=C/C=C(C)/C=C/c1c(C)cc(OC)c(C)c1C [9-(4-methoxy-2,3,6-trimethylphenyl)-3,7-dimethyl-nona-2,4,6,8-tetraen-1-oic acid ethyl amide]
Number of Corneocytes, one day post treatment (corneocytes on the scalp; Volunteer No. 1, 15 ml of 0.1% by weight solution on scalp daily for seven days, one day pre-treatment: 2100): 1400 | Number of Corneocytes, one day post treatment (corneocytes on the scalp; Volunteer No. 2, 15 ml of 0.1% by weight solution on scalp daily for seven days, one day pre-treatment: 5100): 1500 | Number of Corneocytes, one day post treatment (corneocytes on the scalp; Volunteer No. 3, 15 ml of 0.1% by weight solution on scalp daily for seven days, one day pre-treatment: 3250): 1600 | Number of Corneocytes, one day post treatment (corneocytes on the scalp; Volunteer No. 4, 15 ml of 0.1% by weight solution on scalp daily for seven days, one day pre-treatment: 1900): 1600 | decline in number of corneocytes (average) (corneocytes on the scalp; four volunteers, one day post treatment vs one day pre-treatment, 15 ml of 0.1% by weight solution daily for seven days): 50% | Number of Corneocytes, one day post treatment, Total (corneocytes on the scalp; total of four volunteers, 15 ml of 0.1% by weight solution on scalp daily for seven days, one day pre-treatment total: 12350): 6100 | LD50 (LD50 s.c. in the mouse): > 4000 mg/kg
